BindingDB's records for patent US20250059196 (Shanghai Hansoh Biomedical, 2025)
pIC50: −log10 of the molar value.

Target: T1, Mucosa-associated lymphoid tissue lymphoma translocation protein 1 (Homo sapiens, UniProt Q9UDY8)
T1 sequence (Q9UDY8 whole entry): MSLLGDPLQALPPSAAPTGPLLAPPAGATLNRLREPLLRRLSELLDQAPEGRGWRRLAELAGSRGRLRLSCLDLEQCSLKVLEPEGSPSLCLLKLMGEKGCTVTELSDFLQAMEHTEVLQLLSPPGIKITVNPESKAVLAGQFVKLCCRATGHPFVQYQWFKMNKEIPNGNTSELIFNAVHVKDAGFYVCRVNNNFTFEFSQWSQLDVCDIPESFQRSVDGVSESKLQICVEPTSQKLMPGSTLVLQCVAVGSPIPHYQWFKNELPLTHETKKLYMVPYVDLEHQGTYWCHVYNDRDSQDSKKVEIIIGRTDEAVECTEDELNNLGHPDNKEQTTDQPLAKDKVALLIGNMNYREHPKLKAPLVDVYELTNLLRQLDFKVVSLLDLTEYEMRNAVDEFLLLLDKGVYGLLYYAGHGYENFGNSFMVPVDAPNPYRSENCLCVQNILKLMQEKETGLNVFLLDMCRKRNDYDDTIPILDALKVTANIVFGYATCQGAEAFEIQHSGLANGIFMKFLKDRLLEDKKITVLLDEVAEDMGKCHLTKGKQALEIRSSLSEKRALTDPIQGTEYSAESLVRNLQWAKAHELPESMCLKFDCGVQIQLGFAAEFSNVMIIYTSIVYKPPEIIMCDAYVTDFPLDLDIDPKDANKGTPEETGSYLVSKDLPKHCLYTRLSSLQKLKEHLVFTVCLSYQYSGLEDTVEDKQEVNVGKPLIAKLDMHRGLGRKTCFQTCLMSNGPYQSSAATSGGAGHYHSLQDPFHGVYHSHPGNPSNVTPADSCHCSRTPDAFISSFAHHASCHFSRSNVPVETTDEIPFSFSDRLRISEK
Experiment: MALT1 Enzyme Activity Assay
Description: The compound and the enzyme were pre-incubated at room temperature for 50 min. The substrate was then added and the reaction was carried out for 4 h.

SMILES	pIC50
CS(C)(=O)=Nc1ncc(NC(=O)c2cnn(-c3ccc4c5c(cccc35)C(=O)N4)c2C(F)(F)F)cc1C(F)(F)F [US20250059196, Example 30]	6.85
N#Cc1ccnn1-c1ncc(NC(=O)c2cnn(-c3ccc4c5c(cccc35)C(=O)N4)c2C(F)(F)F)cc1C(F)(F)F [US20250059196, Example 32]	6.91
Cc1nc(-c2ncc(NC(=O)c3cnn(-c4ccc5c6c(cccc46)C(=O)N5)c3C(F)(F)F)cc2C(F)(F)F)oc1C [US20250059196, Example 35]	7.23
O=C(Nc1cnc(N2CCC2)c(Cl)c1)c1cnn(-c2ccc3c4c(cccc24)C(=O)N3)c1C(F)(F)F [US20250059196, Example 48]	6.85
O=C(Nc1ccc(C(=O)N2CCCC2)c(C(F)(F)F)c1)c1cnn(-c2ccc3c4c(cccc24)C(=O)N3)c1C(F)(F)F [US20250059196, Example 52]	6.98
O=C(Nc1cnc(-n2cccn2)c(C(F)(F)F)c1)c1cnn(-c2cnc3c4c(cccc24)C(=O)N3)c1C(F)(F)F [US20250059196, Example 69]	7.09
O=C(Nc1ccc(-n2nccn2)c(C(F)(F)F)c1)c1cnn(-c2cnc3c4c(cccc24)C(=O)N3)c1C(F)(F)F [US20250059196, Example 73]	6.72
O=C(Nc1ccc(-n2cccn2)c(C(F)(F)F)c1)c1cnn(-c2cnc3c4c(cccc24)C(=O)N3)c1C(F)(F)F [US20250059196, Example 74]	6.71
O=C(Nc1cnc(-n2nccn2)c(C(F)(F)F)c1)c1cnn(-c2ncc3c4c(cccc24)C(=O)N3)c1C(F)(F)F [US20250059196, Example 87]	7.08
CCc1cc(-n2ncc(C(=O)Nc3ccnc(C(F)(F)F)c3)c2C(F)(F)F)c2cccc3c2c1NC3=O [US20250059196, Example 89]	6.97

The next compounds have a higher pIC50 than those just listed; values first:

pIC50	SMILES
7.40	O=C(Nc1cnc(-n2cccn2)c(C(F)(F)F)c1)c1cnn(-c2ccc3c4c(cccc24)C(=O)N3)c1C(F)(F)F [US20250059196, Example 31]
7.34	O=C(Nc1cnc(-c2nccs2)c(C(F)(F)F)c1)c1cnn(-c2ccc3c4c(cccc24)C(=O)N3)c1C(F)(F)F [US20250059196, Example 33]
7.49	O=C(Nc1cnc(-c2ncco2)c(C(F)(F)F)c1)c1cnn(-c2ccc3c4c(cccc24)C(=O)N3)c1C(F)(F)F [US20250059196, Example 34]
7.28	O=C(Nc1cnc(-n2ccnn2)c(C(F)(F)F)c1)c1cnn(-c2ccc3c4c(cccc24)C(=O)N3)c1C(F)(F)F [US20250059196, Example 36]
7.33	O=C(Nc1ccc(-n2cccn2)c(C(F)(F)F)c1)c1cnn(-c2ccc3c4c(cccc24)C(=O)N3)c1C(F)(F)F [US20250059196, Example 51]
7.62	O=C(Nc1ccc(-n2nccn2)c(Cl)c1)c1cnn(-c2cnc3c4c(cccc24)C(=O)N3)c1C(F)(F)F [US20250059196, Example 75]
7.46	O=C(Nc1cnc(-n2nccn2)c(C(F)(F)F)c1)c1cnn(-c2cnc3c4c(cccc24)C(=O)N3)c1C1CC1 [US20250059196, Example 78]
